Test results from the NIST ThermoML archive (doi:10.1021/je100896n).
± gives the expanded uncertainty stated by the source.

Settings: Fluid (supercritical or subcritical phases), Pulse-echo method

Work on `C=C(F)C(F)(F)F` [2,3,3,3-tetrafluoro-1-propene] yielded a speed of sound (259.99 K, 4968 kPa) of 655.69 ± 1.4 m/s, a speed of sound (260 K, 1989 kPa) of 632.05 ± 1.4 m/s and a speed of sound (260 K, 3044 kPa) of 640.57 ± 1.4 m/s. It also gave a speed of sound (260 K, 4057 kPa) of 648.57 ± 1.4 m/s, a speed of sound (260 K, 5993 kPa) of 663.37 ± 1.4 m/s and a speed of sound (285 K, 4006 kPa) of 546.27 ± 1.5 m/s. It also gave a speed of sound (285 K, 5983 kPa) of 565.09 ± 1.5 m/s, a speed of sound (285.01 K, 2033 kPa) of 525.9 ± 1.6 m/s and a speed of sound (285.01 K, 3011 kPa) of 536.18 ± 1.5 m/s. The speed of sound (285.01 K, 5090 kPa) was 556.71 ± 1.5 m/s, the speed of sound (310 K, 5016 kPa) was 456.81 ± 1.7 m/s and the speed of sound (310 K, 6057 kPa) was 469.1 ± 1.6 m/s. It also gave a speed of sound (310.01 K, 2013 kPa) of 415.62 ± 2.2 m/s, a speed of sound (310.01 K, 3042 kPa) of 430.67 ± 1.8 m/s and a speed of sound (310.01 K, 4019 kPa) of 444 ± 1.7 m/s. The speed of sound (334.98 K, 5937 kPa) was 371.38 ± 1.9 m/s, the speed of sound (335 K, 2073 kPa) was 293.74 ± 2.6 m/s and the speed of sound (335 K, 3039 kPa) was 317.18 ± 2.5 m/s. The speed of sound (335 K, 3985 kPa) was 336.92 ± 2.2 m/s, the speed of sound (335 K, 5008 kPa) was 355.82 ± 2.1 m/s and the speed of sound (359.94 K, 6062 kPa) was 275.99 ± 2.8 m/s. For the same molecule, the speed of sound (359.96 K, 4997 kPa) was 248.55 ± 2.8 m/s.

`F/C=C/C(F)(F)F` [trans-1,3,3,3-tetrafluoropropene] showed a speed of sound (259.98 K, 1980 kPa) of 715.11 ± 1.4 m/s, a speed of sound (259.98 K, 3989 kPa) of 728.84 ± 1.4 m/s and a speed of sound (260 K, 6021 kPa) of 742.08 ± 1.4 m/s. For the same molecule, the speed of sound (260 K, 8007 kPa) was 754.65 ± 1.4 m/s, the speed of sound (260.01 K, 10070 kPa) was 767.16 ± 1.4 m/s and the speed of sound (285 K, 1956 kPa) was 606.38 ± 1.5 m/s. It also gave a speed of sound (285 K, 4021 kPa) of 624.26 ± 1.4 m/s, a speed of sound (285 K, 6056 kPa) of 640.72 ± 1.4 m/s and a speed of sound (285 K, 8005 kPa) of 655.64 ± 1.4 m/s. For the same molecule, the speed of sound (285 K, 9989 kPa) was 670.06 ± 1.4 m/s, the speed of sound (310 K, 2063 kPa) was 497.64 ± 1.7 m/s and the speed of sound (310 K, 3947 kPa) was 519.14 ± 1.6 m/s. It also gave a speed of sound (310 K, 10112 kPa) of 578.79 ± 1.5 m/s, a speed of sound (310.01 K, 6041 kPa) of 540.98 ± 1.5 m/s and a speed of sound (310.01 K, 8005 kPa) of 559.88 ± 1.5 m/s. The speed of sound (335 K, 7985 kPa) was 465.6 ± 1.6 m/s, the speed of sound (335 K, 10020 kPa) was 488.5 ± 1.6 m/s and the speed of sound (335.01 K, 2007 kPa) was 379.56 ± 2 m/s. For the same molecule, the speed of sound (335.01 K, 4027 kPa) was 413.08 ± 1.9 m/s, the speed of sound (335.01 K, 5978 kPa) was 440.56 ± 1.7 m/s and the speed of sound (360 K, 6047 kPa) was 340.1 ± 2.2 m/s. For the same molecule, the speed of sound (360.02 K, 3998 kPa) was 296.31 ± 2.4 m/s, the speed of sound (360.03 K, 8052 kPa) was 373.95 ± 1.9 m/s and the speed of sound (360.03 K, 10036 kPa) was 402.5 ± 1.8 m/s.
